# Patent US11498900B2, “Salts of an LSD1 inhibitor” (Incyte Corporation, priority 2015, dated 2022)
# How the values were obtained:
# Type in all cases: physicochemical
# [1] = Dynamic vapor sorption (DVS) analysis; details: 25° C.; for Hygroscopicity (DVS adsorption/desorption isotherm): bis(4-methylbenzenesulfonate)
# Method: Form I was characterized by DVS. The DVS analysis was performed on a TA Instruments Vapor Sorption Analyzer, model VTI-SA^+. The sample was pre-dried on VTI at 50° C. with 0% RH N2 for 1 h. Then the moisture uptake profile was completed in one cycle in 5% RH increments with adsorption from 0% RH to 95% RH followed by desorption in 5% increments from 95% to 5% RH. The equilibration criteria were 0.0050 wt % in 5 minutes with a maximum equilibration time of 180 minutes. All adsorption and desorption were performed at 25° C.
# Form HI was characterized by DVS. The DVS analysis was performed on a TA Instruments Vapor Sorption Analyzer, model VTI-SA^+. The moisture uptake profile was completed in one cycle in 5% RH increments with adsorption from 35% RH to 95% RH followed by desorption in 5% increments from 95% to 5% RH. The equilibration criteria were 0.0010 wt % in 5 minutes with a maximum equilibration time of 180 minutes. All adsorption and desorption were performed at 25° C. No pre-drying step was applied for the sample.
# Form DH was characterized by DVS. The DVS analysis was performed on a TA Instruments Vapor Sorption Analyzer, model VTI-SA^+. Form DH was generated by pre-drying Form HI on VTI at 40° C. with 0% RH N2 for 3 h. Then the moisture uptake profile was completed in one cycle in 5% RH increments with adsorption from 0% RH to 95% RH followed by desorption in 5% increments from 95% to […]. The equilibration criteria were 0.0010 wt % in 5 minutes with a maximum equilibration time of 180 minutes. All adsorption and desorption were performed at 25° C.
# [2] = Solid form conversion on storage or exposure to humidity
# Method: Form HI of Compound I di-tosylate salt was prepared during the process of drying a wet sample of Compound I di-tosylate salt, Form I, under ambient conditions. […] Form HI can also be generated by purging humidified air (e.g., 60-85% RH) through Form I solid.
# Form HIII was prepared by drying Form HI on Vapor Sorption Analyzer (TA Instruments VTI-SA^+) at 40° C. with 0% RH N2 for 3 h and then exposing it to humidity at about 30-50% RH at 25° C. for 1 day.
# Form DH was prepared by drying Form HI on Vapor Sorption Analyzer (TA Instruments VTI-SA*) at 25° C. with 0% RH N2 for 2 days.
# [3] = Concentration of saturated solution in ethanol
# Method: In one experiment, Form IIIa was prepared by adding 0.4 mL of saturated solution of Form I in ethanol (60 mg/mL) to 3.0 mL of IPAc. The resulting solid was filtered. Form IIIa was also prepared according to the procedure set forth in Example 13 using EtOH/IPAc as a solvent pair.
# In one experiment, Form X was prepared by adding 0.3 mL of saturated solution of Form I in ethanol (60 mg/mL) to 2.5 mL of heptane. The resulting solid was filtered. Form X was also prepared according to the procedure set forth in Example 13 using EtOH/heptane as a solvent pair.
# [4] = Competitive slurry experiment, relative stability of polymorph forms; details: in butanone and butanone/heptane (1:1)
# Method: In order to evaluate the relative stability relationship of the various Compound I di-tosylate polymorph forms, a competitive slurry experiment with a mixture of Form I, II, III and IIIa through Form XII was conducted in butanone-heptane at 50° C. according to Procedure 1 below and in butanone at 25° C. according to Procedure 2 below. The mixture of thirteen polymorphs was converted to Form I after stirring in butanone/heptane (1:1) at 50° C. for 6-18 hours and after stirring in butanone at 25° C. for 6-18 hours.
# Procedure 1 competitive experiment in butanone-heptane at 50° C.:
# Procedure 2 competitive experiment in butanone at 25° C.: […]
# [5] = Thermogravimetric analysis (TGA), decomposition; details: ramp 20° C. to 600° C. at 20° C./min, nitrogen
# Method: Form I was characterized by TGA. The TGA was obtained using a TA Instrument Thermogravimetric Analyzer, Model Q500. The general experimental conditions for TGA were: ramp from 20° C. to 600° C. at 20° C./min; nitrogen purge, gas flow at 40 mL/min followed by balance of the purge flow; sample purge flow at 60 mL/min; platinum sample pan. A weight loss of about 3.5% up to 150° C. was observed and believed to be associated with the loss of moisture and residual solvents.
# [6] = Physical stability of Form HI under different humidity conditions
# Method: Physical stability of Form HI was studied under different humidity conditions. The humidity was controlled at 25° C. using Vapor Sorption Analyzer (TA Instruments, Model VTI-SA*). Approximately 20 mg of Form HI in the sample holder was placed inside the humidity chamber of the instrument and held under constant humidity. A sample in an open glass vial was also set up under ambient conditions. After a certain period of time, the sample was removed and characterized by XRPD, DSC, and TGA. Weight loss by TGA was mostly associated with loss of water. The experimental parameters of XRPD, DSC, and TGA are analogous to those in Example 6 for Form HI.
# Form HI was stable for 10 days under humidity conditions of 10-85% RH and was stable for 60 days under ambient conditions. […] The table below provides the data for the physical stability of Form HI at 25° C. (open vial).
# [7] = high humidity about 60-85% RH, bis(4-methylbenzenesulfonate)
# [8] = 0% RH, 2 days, 25° C., open vial
# [9] = 5% RH, 7 days, 25° C., open vial
# [10] = 10% RH, 10 days, 25° C., open vial
# [11] = 30% RH, 5 days, 25° C., open vial
# [12] = 75% RH, 10 days, 25° C., open vial
# [13] = 85% RH, 10 days, 25° C., open vial
# [14] = 90% RH, 4 days, 25° C., open vial
smiles,measurement,setting,value
"COCC1(CN[C@@H]2C[C@H]2c2ccccc2)CCN(CC2(C(=O)O)CCC2)CC1 [Form DH, 1-{[4-(methoxymethyl)-4-({[(1R,2S)-2-phenylcyclopropyl]amino}methyl)piperidin-1-yl]methyl}cyclobutanecarboxylic acid bis(4-methylbenzenesulfonate)]",Hygroscopicity (DVS adsorption/desorption isotherm),[1],hygroscopic
same,Solid form collected after DVS,[1]; after DVS at 85% RH,Form HI
same,Solid form change on exposure to humidity,[2]; about 30-50% RH,change to Form HIII
same,Solid form change on exposure to humidity,[2]; [7],Form HI
"COCC1(CN[C@@H]2C[C@H]2c2ccccc2)CCN(CC2(C(=O)O)CCC2)CC1 [Form HIII, 1-{[4-(methoxymethyl)-4-({[(1R,2S)-2-phenylcyclopropyl]amino}methyl)piperidin-1-yl]methyl}cyclobutanecarboxylic acid bis(4-methylbenzenesulfonate)]",Solid form change on exposure to humidity,[2]; [7],change to Form HI
"COCC1(CN[C@@H]2C[C@H]2c2ccccc2)CCN(CC2(C(=O)O)CCC2)CC1 [Form I, 1-{[4-(methoxymethyl)-4-({[(1R,2S)-2-phenylcyclopropyl]amino}methyl)piperidin-1-yl]methyl}cyclobutanecarboxylic acid bis(4-methylbenzenesulfonate)]",Concentration of saturated solution,[3],60000 µg/mL
same,Hygroscopicity (DVS adsorption/desorption isotherm),[1],hygroscopic
same,Relative stability of polymorphic forms,[4],most stable polymorphic form
same,Temperature after which significant decomposition starts (TGA),[5],> 200 °C
same,Solid form change,"[2]; drying of wet sample under ambient conditions, atmospheric moisture",changed to crystalline Form HI
same,Solid form change on storage,[2]; storage 25° C./60% RH,converted to Form HI
same,Solid form change on storage,[2]; storage 40° C./75% RH,converted to Form HI
"COCC1(CN[C@@H]2C[C@H]2c2ccccc2)CCN(CC2(C(=O)O)CCC2)CC1 [Form HI, 1-{[4-(methoxymethyl)-4-({[(1R,2S)-2-phenylcyclopropyl]amino}methyl)piperidin-1-yl]methyl}cyclobutanecarboxylic acid bis(4-methylbenzenesulfonate)]",% Wt Loss by TGA (25-120° C.),[6]; [8],2.30%
same,DSC (° C.) (Peak Temperature),[6]; [8],97.5 °C
same,XRPD (solid form),[6]; [8],Form DH
same,% Wt Loss by TGA (25-120° C.),[6]; [9],2.93%
same,DSC (° C.) (Peak Temperature),[6]; [9],81.2 °C
same,XRPD (solid form),[6]; [9],Form HI
same,% Wt Loss by TGA (25-120° C.),[6]; [10],5.05%
same,DSC (° C.) (Peak Temperature),[6]; [10],82.4 °C
same,XRPD (solid form),[6]; [10],Form HI
same,Physical stability,"[6]; 10-85% RH, 10 days, 25° C.",stable
same,% Wt Loss by TGA (25-120° C.),[6]; [11],5.38%
same,DSC (° C.) (Peak Temperature),[6]; [11],80.7 °C
same,XRPD (solid form),[6]; [11],Form HI
same,% Wt Loss by TGA (25-120° C.),[6]; [12],5.30%
same,DSC (° C.) (Peak Temperature),[6]; [12],79.8 °C
same,XRPD (solid form),[6]; [12],Form HI
same,% Wt Loss by TGA (25-120° C.),[6]; [13],5.35%
same,DSC (° C.) (Peak Temperature),[6]; [13],79.9 °C
same,XRPD (solid form),[6]; [13],Form HI
same,Physical stability,"[6]; 90% RH, 25° C.",change to Form HII
same,% Wt Loss by TGA (25-120° C.),[6]; [14],6.04%
same,DSC (° C.) (Peak Temperature),[6]; [14],80.0 °C
same,XRPD (solid form),"[6]; 90% RH, 4 days, 25° C., open vial, cell wraps over r12-r14: Form HI + Form HII (minor)",Form HI +
same,% Wt Loss by TGA (25-120° C.),"[6]; 90% RH, 10 days, 25° C., open vial",9.4%
same,XRPD (solid form),"[6]; 90% RH, 10 days, 25° C., open vial, cell wraps over r15-r16: Form HI + Form HII",Form HI +
same,% Wt Loss by TGA (25-120° C.),"[6]; Ambient, 60 days, open vial",4.77%
same,DSC (° C.) (Peak Temperature),"[6]; Ambient, 60 days, open vial",79.8 °C
same,XRPD (solid form),"[6]; Ambient, 60 days, open vial",Form HI
same,Physical stability,"[6]; ambient conditions, 60 days, open vial",stable
same,Physical stability,"[6]; below 10% RH, 25° C.",de-hydrated
same,Hygroscopicity (DVS adsorption/desorption isotherm),[1],slightly hygroscopic
